Consider two substances from patent US20050075284A1, “Pharmaceutical compositions comprising vip-related peptides for the treatment of sexual disorders” (priority 2001, published 2005).

“Also recorded” adds a separate entry of the source. Where no end group is shown, it is not given here.

For data set [1] the following is noted: cited from earlier work.
The test system of data set [2] is vaginal muscle. Briefly: Rabbit vaginal contraction in organ bath (force transducer). In kind it is cell-based, New Zealand female rabbit. As to the method: The vagina of 12-week-old New Zealand female rabbit was removed, exiced to 1 cm length and immersed in 10 ml of capacity organ bath connected to an external reservoir of Krebs-Henseleit in constant temperature of 37° C. The solution was oxygenated (95%O2/[…]). The effect of VIP and SNV on vaginal contraction was measured by attaching the vaginal muscle to a force transducer.

For data set [3], the system named is cGMP formation. The note with it: versus VIP; cited from earlier work.
Data set [4] deals with penile erection. The note with it: in the male; cited from earlier work.
The subject of data set [5] is uterine smooth muscle activity and vaginal blood flow. The note with it: systemic administration to females; cited from earlier work.

On to Stearoyl-norleucine^17-VIP [SNV], for which the bioavailability result in data set [1] was “increased stability and bioavailability”. Also, in data set [2] (0.3 μM peptide, 0.5 μM phenylephrine, FIG. 2), the “effect on contraction force (inotropic effect)” value is given as “reduced the contraction force”. Besides, the “effect on rate of vaginal contraction” value in data set [2] (0.3 μM peptide, contraction stimulated by 0.5 μM phenylephrine, FIG. 2) is recorded as “attenuated the rate of vaginal contraction”. For the same substance, the “effect on vaginal contraction at high concentration” value in data set [2] (1.5 μM peptide (b76 prints 1.5 M), contraction stimulated by 0.5 μM phenylephrine, FIG. 3) is “blocked vaginal contraction; also recorded: neutralized vaginal contraction”. Further, the “potency in enhancing cGMP formation relative to VIP” value in data set [3] is given as 1000 fold.
With “vasoactive intestinal peptide (HSDAVFTDNYTRLRKQMAVKKYLNSILN; ends and bridges not checked; UniProt P01282 125-152, looked up) [VIP]”, in data set [4], the penile erection entry is “induces penile erection”. Also, in data set [5], the “uterine smooth muscle activity” value was “decrease uterine smooth muscle activity” and the vaginal blood flow entry was “increase vaginal blood flow”. For the same substance, in data set [2] (0.3 μM peptide, preliminary results, FIG. 1), the “effect on vaginal contraction” value is “neutralized vaginal contraction”.
